Marks after values point to notes of the source that are not given here. One block for each compound: values may come before it.
Key:
[1] = target: T1, Human RORγ Ligand Binding Domain (RORγ-LBD) (Homo sapiens, UniProt P51449); experiment: Dual Fluorescence Energy Transfer (FRET) assay: co-activator SRC1(2) peptide interaction with RORγ-LBD; type: biochemical; conditions: RORγ-LBD / SRC1(2) peptide, read-out: mean pIC50 (converted)
T1 construct: His6 with thrombin site) (N); made in house; host or cells: E. coli BL21(DE3), modified pET21a vector
T1 sequence (P51449 263-518): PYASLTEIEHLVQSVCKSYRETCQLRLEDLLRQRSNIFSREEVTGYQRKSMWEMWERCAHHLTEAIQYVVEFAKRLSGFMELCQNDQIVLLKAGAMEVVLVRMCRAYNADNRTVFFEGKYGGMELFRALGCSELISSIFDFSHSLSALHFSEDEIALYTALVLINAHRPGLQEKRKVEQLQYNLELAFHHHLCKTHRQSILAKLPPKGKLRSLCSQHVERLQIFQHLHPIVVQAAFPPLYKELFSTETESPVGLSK
Description: Dual Fluorescence Energy Transfer (FRET) Assay
This assay is based on the knowledge that nuclear receptors interact with cofactors (transcription factors) in a ligand dependent manner. RORγ is a typical nuclear receptor in that it has an AF2 domain in the ligand binding domain (LBD) which interacts with co-activators.
This assay measures ligand-mediated interaction of the co-activator peptide with the purified bacterial-expressed RORγ ligand binding domain (RORγ-LBD) to indirectly assess ligand binding. RORγ has a basal level of interaction with the co-activator SRC1(2) in the absence of ligand, thus, it is possible to find ligands that inhibit or enhance the RORγ/SRC1(2) interaction.
Human RORγ Ligand Binding Domain (RORγ-LBD) was expressed in E. coli strain BL21(DE3) as an amino-terminal polyhistidine tagged fusion protein. DNA encoding this recombinant protein was sub-cloned into a modified pET21a expression vector (Novagen).
Approximately 50 g E. coli cell pellet was resuspended in 300 mL of lysis buffer (30 mM imidazole pH 7.0 and 150 mM NaCl). Cells were lysed by sonication and cell debris was removed by centrifugation for 30 minutes at 20,000 g at 4° C. […] The clarified lysate was loaded onto a column (XK-26) packed with ProBond Nickel Chelating resin (InVitrogen), pre-equilibrated with 30 mM imidazole pH 7.0 and 150 mM NaCl. After washing to baseline absorbance with the equilibration buffer, the column was developed with a gradient from 30 to 500 mM imidazole pH 7.0. Column fractions containing the RORγ-LBD protein were pooled and concentrated to a volume of 5 mLs. The concentrated protein was loaded onto a Superdex 200 column pre-equilibrated with 20 mM Tris-Cl pH 7.2 and 200 mM NaCl. The fractions containing the desired RORγ-LBD protein were pooled together.
Purified RORγ-LBD was buffer exchanged by exhaustive dialysis [3 changes of at least 20 volumes (>8000×)] against PBS [100 mM NaPhosphate, pH 8 and 150 mM NaCl]. […] The modified RORγ-LBD was dialyzed against 2 buffer changes—TBS pH 8.0 containing 5 mM DTT, 2 mM EDTA and 2% sucrose—each at least 20 times of the volume. The modified protein was distributed into aliquots, frozen on dry ice and stored at −80° C. The biotinylated RORγ-LBD was subjected to mass spectrometric analysis to reveal the extent of modification by the biotinylation reagent.
Biotinylated SRC1(2) solution was prepared by adding an appropriate amount of biotinylated SRC1(2) from the 100 uM stock solution to a buffer containing 10 mM of freshly added DTT from solid to give a final concentration of 40 nM. An appropriate amount of Europium labeled Streptavidin was then added to the biotinylated SRC1(2) solution in a tube to give a final concentration of 10 nM. The tube was inverted gently and incubated for 15 minutes at room temperature. Twenty-fold excess biotin from the 10 mM stock solution was added and the tube was inverted gently and incubated for 10 minutes at room temperature.
Biotinylated RORγ-LBD solution was prepared by adding an appropriate amount of biotinylated RORγ-LBD from the stock solution to a buffer containing 10 mM of freshly added DTT from solid to give a final concentration of 40 nM. An appropriate amount of APC labeled Streptavidin was then added to the biotinylated RORγ-LBD solution in a tube to give a final concentration of 20 nM. The tube was inverted gently and incubated for 15 minutes at room temperature. Twenty-fold excess biotin from the 10 mM stock solution was then added and the tube was inverted gently and incubated for 10 minutes at room temperature.
The reaction mixtures were incubated for 5 minutes. […] The plates were incubated for 1 hour and then read on ViewLux in Lance mode for EU/APC.

IL-17A mRNA expression = experiment: Ex-vivo human skin model, IL-17A mRNA expression; type: cell-based; conditions: Th17 cytokine cocktail 24 h, RT-PCR
Description: (§1) Fresh ex vivo human skin from healthy bariatric patients, that underwent abdominoplasty skin removal, was de-fatted and dermatomed at 750 μm. Dermatomed skin was incubated twice for 5-10 minutes at room temperature in PBS containing a antibiotic/antimycotic solution: Fungizone (Invitrogen #15290018), PSG (Fisher #BW17718R) and Gentamicin (Invitrogen #15750060). Skin was treated aseptically from this point on. Individual skin samples were obtained by 10 mm punch biopsy and placed in a 0.4 μm PCF membrane transwell (Millicell #PIHP01250) containing 30 μl of a 64% bovine collagen solution. After a 30 minute incubation at 37° C., which allows the collagen solution time to set, skin samples on transwells were transferred to 6-well plates (1 sample per well) and the lower chamber filled with 1 ml complete media (Cornification Media)+hydrocortisone (final concentration of 0.4 μg/ml) with or without test compounds at 10 μM (day −3) and allowed to rest overnight (16-18 h) at 37° C. Next, media was aspirated from the lower chamber, replaced with 1 ml complete media without hydrocortisone and incubated at 37° C. for 1 h. This constituted a ‘wash’ step. Following the hydrocortisone washout, media was again aspirated from the lower chamber and replaced with 1.0 ml complete media without hydrocortisone with or without GSK compounds at 10 μM (day −2). Cultures were incubated at 37° C. in a humidified chamber and media was refreshed one more day (day-1). The following day (day-0), cultures were stimulated for 24 h with a freshly made Th17 cytokine cocktail (CD3, 1 μg/ml, CD28, 2 μg/ml, IL-1b, 10 ng/ml, IL-6, 5 ng/ml, TGFb, 1 ng/ml, IL-21, 10 ng/ml, anti-IL-4, 1 μg/ml and anti-INFg, 1 μg/ml) with or without test compounds at 10 μM. Upon harvest (day +1), skin samples were minced with a razor blade and transferred to 1.5 ml RNAse-free tubes with 1 ml RNAlater solution until later analysis by RT-PCR (stored at −80 C).
(§2) Total RNA was isolated from about 30-40 mg of tissue using Qiagen's (Cat #74106) Mini RNA Isolation kit. Briefly, tissue was homogenized in the Precellys-24 machine using 300 μL of RLT buffer supplemented with 1% 2-Beta-Mercapto-Ethanol at 6300 rpm for 30 seconds for 6 cycles with a 2-minute ice break. 600 μL of water containing Proteinase K was added to the homogenate and digested at 55 C for 15 minutes. Digested tissue was spun down for 3 minutes at 10,000×g and the supernantant was used for RNA isolation using Qiagen's RNeasy mini columns according to manufacturer's protocol. 100 ng of RNA was used as template in a 20 μL PCR volume using Applied Biosciences RNA-to-CT 1 Step kit (AB Catalog #4392938) as well as the specific TaqMan probe for each gene to be quantified. Life Technologies FAM labeled Probes Catalog Numbers are as follows: ACTb=Hs01060665_g1, IL-17A=Hs00174383_m1, IL-17F=Hs00369400_m1, IL-22=Hs01574154_m1. All probes used (except for ACTb) expand an Exon. Applied Biosciences' Master Mix has a ROX dye internal control. OneStepPlus PCR machine was used for both the RT step and the 40 amplification cycles. RNA levels of gene of interest's relative expression were calculated using the Delta Delta CT formula.
(§3) First delta: Normalized to ACTb gene expression
(§4) Second delta: Normalized to sample 13 (Day 0+DMSO) for the gene of interest.

IL-17F mRNA expression = experiment: Ex-vivo human skin model, IL-17F mRNA expression; type: cell-based; conditions: Th17 cytokine cocktail 24 h, RT-PCR
Description: as §1, §2, §3, §4

IL-22 mRNA expression = experiment: Ex-vivo human skin model, IL-22 mRNA expression; type: cell-based; conditions: Th17 cytokine cocktail 24 h, RT-PCR
Description: as §1, §2, §3, §4

[2] = tested on: IL-17A secreted from antiCD3/CD28 stimulated Peripheral Blood Mononuclear cells (PBMC); experiment: Peripheral Blood Mononucleocyte Cell Assay (PBMC Assay - IL-17); type: cell-based; conditions: Homo sapiens, 48 h, IL-17A release, read-out: mean pIC50 (converted)
Description: Peripheral Blood Mononucleocvte Cell Assay (PBMC Assay—IL-17) […]
This assay is designed to measure levels of IL-17A secreted from antiCD3/CD28 stimulated frozen Peripheral Blood Mononuclear cells (PBMC) isolated from human blood with the aim of identifying inhibitors of IL-17A release.
2. The compounds for screening are dispensed into a master plate at 10 mM top concentration which are serially diluted 1:3 across 11 points in DMSO, then 500 nL is transferred into a 384-well flat-bottomed Greiner plate to which 50 uL of cell suspension is added: for the single shot screening the highest concentration of compound is 10^−5M; for 11 point full curve dose response studies the highest concentration is 10^−4 M.
As a low control, DMSO (as supplied, for example, by VWR) (final concentration 1%) in column 6 (16 points).
As a high control, 5-(4-fluorophenyl)-2-ureidothiophene-3-carboxamide (obtainable from, for example, Sigma) at a final concentration of 10^−4 M in DMSO should be used in column 18 (16 points).
9. Make the cell suspension at the concentration 8×10^5 cells/mL to give a final number of 40,000 cells/well.
1. Add well mixed CD3/CD28 Dynabeads (as supplied, for example, by Dynal) to achieve ratio bead:cell=2:1 (ie. a dilution of 1 in 20). Mix thoroughly.
2. Dispense the suspension into the 384 Assay Plates using Multidrop (50 uL per well). If the volume of cell suspension is large, mix the suspension after dispensing into every other plate.
3. Cover the plates with the lids and place them to the humidified incubator (37° C., 5% CO2) for 48 hours.
1. Transfer 10 uL of supernatants from assay plates to the MSD plates using Cybiwell. Ensure that all wells are covered with the solution. Tap the plate gently, if some of the wells are not covered with the supernatant.
3. Add 10 uL of MSD IL-17 detecting antibody using multidrop (1 ug/mL in D-PBS without Ca^2+ and Mg^2+ (supplied, for example, by Gibco)).
4. Cover the plates with adhesive foil and incubated with shaking for 3 hours at room temperature
7. Add 35 uL of MSD Read Buffer T×2 using multidrop.
8. Read plates on MSD MA6000 reader using the 384 well plate protocol as per manufacturer's instructions.

IC50 [1]: 31.6 nM
Structure (SMILES): CCc1ccc(N(CC(C)C)S(=O)(=O)c2ccc(C(O)CN3CCOCC3)c(CO)c2)cc1 (racemic) [Example E123, N-(4-ethylphenyl)-4-(1-hydroxy-2-morpholinoethyl)-3-(hydroxymethyl)-N-isobutylbenzenesulfonamide]
Percentage of inhibition of IL-17A mRNA expression (IL-17A mRNA expression; Skin Donor 1, compound 10 μM): 76% *
Percentage of inhibition of IL-17A mRNA expression (IL-17A mRNA expression; Skin Donor 2, compound 10 μM): 92% *
Percentage of inhibition of IL-17A mRNA expression (IL-17A mRNA expression; Skin Donor 3, compound 10 μM): 73% *
Percentage of inhibition of IL-17A mRNA expression (IL-17A mRNA expression; Skin Donor 4, compound 10 μM): 91% *
Percentage of inhibition of IL-17F mRNA expression (IL-17F mRNA expression; Skin Donor 1, compound 10 μM): 55% *
Percentage of inhibition of IL-17F mRNA expression (IL-17F mRNA expression; Skin Donor 2, compound 10 μM): 84% *
Percentage of inhibition of IL-17F mRNA expression (IL-17F mRNA expression; Skin Donor 3, compound 10 μM): 65% *
Percentage of inhibition of IL-17F mRNA expression (IL-17F mRNA expression; Skin Donor 4, compound 10 μM): 87% *
Percentage of inhibition of IL-22 mRNA expression (IL-22 mRNA expression; Skin Donor 1, compound 10 μM): 63% *
Percentage of inhibition of IL-22 mRNA expression (IL-22 mRNA expression; Skin Donor 2, compound 10 μM): 57%
Percentage of inhibition of IL-22 mRNA expression (IL-22 mRNA expression; Skin Donor 3, compound 10 μM): 50%
Percentage of inhibition of IL-22 mRNA expression (IL-22 mRNA expression; Skin Donor 4, compound 10 μM): 68% *

IC50 [1]: ≤ 15.8 nM
Structure (SMILES): Cc1ccc(N(CC(C)C)S(=O)(=O)c2ccc(OCC3CCOCC3)cc2)c(C)c1 [Example E12]
IC50 [2]: < 1000 nM

IC50 [1]: ≤ 15.8 nM
Structure (SMILES): Cc1ccc(N(CC(C)C)S(=O)(=O)c2ccc(OCC3CCOCC3)c(C3CC3)c2)c(C)c1 [Example E21, 3-cyclopropyl-N-(2,4-dimethylphenyl)-N-isobutyl-4-((tetrahydro-2H-pyran-4-yl)methoxy)benzenesulfonamide]
IC50 [2]: < 1000 nM

IC50 [1]: ≤ 15.8 nM
Structure (SMILES): Cc1ccc(N(CC(C)C)S(=O)(=O)c2cc(F)c(OCC3CCOCC3)c(F)c2)c(C)c1 [Example E23]

IC50 [1]: ≤ 15.8 nM
Structure (SMILES): Cc1ccc(N(CC(C)C)S(=O)(=O)c2ccc(OCC3CCOCC3)c(C)c2)c(C)c1 [Example E24]

IC50 [1]: ≤ 15.8 nM
Structure (SMILES): Cc1ccc(N(CC(C)C)S(=O)(=O)c2ccc(OCC3CCOCC3)cc2C)c(C)c1 [Example E25]

IC50 [1]: ≤ 15.8 nM
Structure (SMILES): Cc1ccc(N(CC(C)C)S(=O)(=O)c2ccc(OCC3CCOCC3)cc2O)c(C)c1 [Example E26, N-(2,4-dimethylphenyl)-2-hydroxy-N-isobutyl-4-((tetrahydro-2H-pyran-4-yl)methoxy)benzenesulfonamide]
